In patent publication US9416138B2, “Benzyl sulfonamide compounds useful as MoGAT-2 inhibitors” (Eli Lilly and Company, priority 2012, dated 2016):
Structures can show the parent of a compound that is named as a salt.

Experiments:
human MoGAT-2 [1] = molecular target: T1, human MoGAT-2 (Homo sapiens, UniProt Q3SYC2); test: Inhibitory Activity in MOGAT-2 Cell Assay (Caco-2 cells stably transfected with human MoGAT-2, HDG substrate, LC-MS); format: cell-based; set-up: expressed in transfected cells; settings: Caco-2 cells expressing human MoGAT-2; 4 hours treatment with HDG/DOPC; read-out: C50 nM (Std Dev.; n*)
T1 sequence (Q3SYC2 whole entry): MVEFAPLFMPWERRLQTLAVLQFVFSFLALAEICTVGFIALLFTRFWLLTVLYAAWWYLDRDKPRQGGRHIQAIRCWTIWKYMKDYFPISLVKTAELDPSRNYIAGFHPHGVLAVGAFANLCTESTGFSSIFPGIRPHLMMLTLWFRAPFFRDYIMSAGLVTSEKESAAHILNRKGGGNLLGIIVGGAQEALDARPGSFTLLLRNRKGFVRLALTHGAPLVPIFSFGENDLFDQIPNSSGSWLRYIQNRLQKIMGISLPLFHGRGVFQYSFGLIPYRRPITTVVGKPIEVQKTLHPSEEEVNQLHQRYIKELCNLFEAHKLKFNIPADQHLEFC
Method: The inhibitory activity of compounds against human MoGAT-2 in a cell environment is evaluated in this assay. Caco-2 is a human colon carcinoma cell line and is often used as a model for intestinal epithelial cells. […] The substrate is delivered to cells using as a mixture with DOPC in the form of sonicated vesicles. Seed the Caco2 cells onto 100 mm dishes to be 80% confluent after 24 hours in complete media (3/1 DMEM: F12+10% FBS+20 mM HEPES+gentamicin). Transfect the cells with hMoGAT-2 plasmid (MOGAT-2-pCDNA3.1-Hygro) using Lipofectamine 2000 (Invitrogen). After a 6 hour exposure to the transfection mixture, wash the cells three times in PBS and then add media. Incubate the cells for an additional 18 hours incubation, trypsinize the cells and serially dilute them into 100 mm dishes. Add complete media+400 μg/ml hygromycin and incubate until clones appear. Isolate and transfer the clones into 24 well dishes and grow to confluency. Prepare the RNAs from these clones using a Qiagen RNAeasy kit. Perform Taqman analysis using an ABI inventoried assay (HS00228262) on a 7900 Sequence Detection System (ABI). Analyze the lysates from these clones by Western blot analysis using a goat polyclonal antibody (Santa Cruz, SC-32392 to confirm human MoGAT-2 expression of a 38 kD protein corresponding to MoGAT-2. […] Add 20 ml of buffer (150 mM Tris-Cl pH 7.4, 250 mM sucrose, 1 mM EDTA) to the dried HDG/DOPC mixture while sonicating until the solution becomes clear. Plate the Caco2 cells into a poly-D-lysine coated 96-well plate (the “Cell Plate”) at 37° C., 5% CO2 overnight. […] Trypsinize the cells with 50 μl of trypsin solution and add 50 μl of PBS. Immediately freeze the cells on dry ice and store at -20° C. for LC-MS analysis. Extract the cells with chloroform/methanol as follows: transfer the cells to a 2 ml plate; wash the cell plate with 200 μL methanol and then transfer the methanol wash to the 2 ml plate; wash the cell plate again with 200 μL PBS and transfer the PBS wash to the 2 ml plate. Add chloroform (400 μL) with an internal standard (19.52 ng/mL) DAG (15:0,15:0 (Sigma)), D5-TAG (39.03 ng/mL) CDN (16,16,16) to the 2 mL Plate. Turn the sealed 2 mL Plate up and down (10×), then vortex and spin. Remove 400 μL of the lower layer from the 2 mL plate and add to the wells of another plate the “Final Plate”. Add CHCl3:MeOH (400 μL 2:1) to the 2 mL Plate. Again turn the sealed 2 mL Plate up and down (10×), vortex and spin. Remove 220 μL of the lower layer from the 2 mL Plate and add to the Final Plate. Dry the Final Plate and reconstitute with […] of IPA. […] Monitor the channels to collect data for the D5 C16 TAG internal standard as well as the ether TAG, and […] and […] natural TAGs. Solvent A is 80/20 H2O/Methanol with 20 μM ammonium acetate. Solvent B is 50/50 IPA/THF with 20 μM ammonium acetate. Flow rate is 0.4 mL/min Wash solvents are H2O/MeOH and DCM. Using Xcalibur software extract the areas of the peaks of interest, and export the data to Excel which uses the following formula: (area of ether TAG/area of […] natural TAG)/Area of IS. This ratio effectively accounts for variance of cell number in each well.

human MoGAT-2 [2] = molecular target: T1, human MoGAT-2; test: MOGAT-2 Inhibitory Assay (SF9 cell lysate, 14C-oleoyl-CoA, Microscint E extraction); format: biochemical; set-up: made in house; host or cells: insect SF9 cells (cell lysate supernatant); settings: human MoGAT-2 expressed in SF9 cells, cell extract; 90 minutes at room temperature
Method: The in vitro inhibitory activity of compounds against human MoGAT-2 is evaluated in this assay. MoGAT-2 transfers an oleoyl group to monooleoyl-glycerol (“MAG”) from oleoyl-CoA to form dioleoyl-glycerol (“DAG”) in the intestinal triglyceride resynthesis pathway. The assay takes advantage of Microscint E extraction, which extracts hydrophobic molecules selectively over hydrophilic ones to separate the ^14C-oleoyl-CoA from ^14C-DAG.
Genetically engineered insect SF9 cells express human MoGAT-2. Prepare the cell lysate in 20 mM of NaCl with protease inhibitor (Roche Cat#11873580001). Homogenize the SF9 cells expressing human MoGAT-2 at 15,000 rpm for 20×2 seconds (PT-3100 Polytrone). Centrifuge the homogenate at 1000 g for 10 minutes at 4° C. Collect the supernatant into a separate tube for protein quantification and activity testing. Purify the glycerol monooleate substrate (Spectrum Chemical, CAS#25496-72-4) chromatographically. Prepare the monoacylglyerol (MAG) substrate in phospholipid vescicles (dioleoyl phosphatidylcholine “DOPC”). Prepare the MAG/DOPC vesicles at 20 mM concentration of total lipids (MAG and DOPC). Prepare different molar ratios of MAG to total lipids for either compound screening (8.9%) or compound kinetic studies (2.6-40%). Mix the appropriate amount of purified MAG and DOPC (Avanti Polar Lipids #850375C) in chloroform in a glass tube. […]

[3] = system: oil bolus-induced excursion of triglycerides in circulation; test: Dog Oil Bolus Model; format: in vivo, dog (male beagles); settings: 10 mg/kg dose, olive oil bolus, plasma net TAG AUC, statistically significant (p<0.05)
Source text: Inhibiting MoGAT-2 found in the small intestine may be useful for treating hypertriglyceridemia caused by excessive fat intake Inhibition of MoGAT-2 disrupts resynthesis of triglycerides, which reduces secretion of triglycerides from the intestine. Therefore, MoGAT-2 inhibition interferes with a specific process that leads to eventual secretion of triglycerides into the intestine for eventual circulation through the body. To assess the ability of one or more of the exemplified compounds to inhibit MoGAT-2 induced TAG secretion into the intestine as measured in the blood system, the following protocol can be followed:
Twenty one male beagles are enrolled for each study, each dog selected to have a body weight between 9-13 kg. […]
The analyte is the [M+NH4]+ ion of TAG 18:1 18:1 18:1, which has a mass of 902.8 m/z; the internal standard is D5 TAG 16:0 16:0 16:0, which has a mass of 829.8 m/z. […] The percent inhibition of plasma triglyceride is calculated as follows: the (oil bolus group mean of net TAG AUC−oil bolus group mean of net TAG AUC with compound treatment/oil bolus group mean of net TAG AUC)*100. […] The ability of exemplified compounds of the present invention to inhibit MoGAT-2 activity and reduce TAG absorption in vivo can be further evaluated according to this assay.

Compound | IC50 (human MoGAT-2 [1]) [nM] | other results
C[C@@H](NS(C)(=O)=O)c1ccc(CNCC2COc3ccccc3N2)cc1 (single isomer, unassigned; isomer 2) [Example 14] | 479 | –
C[C@@H](NS(C)(=O)=O)c1ccc(CNC2CCN(c3ccccc3)C2)cc1 (single isomer, unassigned; isomer 2) [Example 19] | 105 | –
C[C@@H](NS(C)(=O)=O)c1ccc(CNCC2COC(c3ccccc3)CO2)cc1 (single isomer, unassigned; isomer 2) [Example 29] | 294 | –
CS(=O)(=O)N[C@@H](c1ccc(CNC[C@H]2COc3cccnc3O2)cc1)C(F)(F)F [Example 1, N-{(1S)-1-[4-({[(3S)-2,3-Dihydro[1,4]dioxino[2,3-b]pyridin-3-ylmethyl]amino}methyl)phenyl]-2,2,2-trifluoroethyl}methanesulfonamide hydrochloride] | 3.8 | IC50 (human MoGAT-2 [2]): 2.28 nM
C[C@@H](NS(C)(=O)=O)c1ccc(CNC[C@H]2COc3cccnc3O2)cc1.Cl [Example 2, N-{(1R)-1-[4-({[(3S)-2,3-Dihydro[1,4]dioxino[2,3-b]pyridin-3-ylmethyl]amino}methyl)phenyl]ethyl}methanesulfonamide hydrochloride] | – | reduction in TAG 18.1_18.1_18.1 [3]: 67%; reduction in total triglycerides [3]: 77%
CS(=O)(=O)N[C@@H](c1ccc(CNCCN2CCc3ccccc3C2=O)cc1)C(F)(F)F [Example 31, N-{(1S)-2,2,2-Trifluoro-1-[4-({[2-(1-oxo-3,4-dihydroisoquinolin-2(1H)-yl)ethyl]amino}methyl)phenyl]ethyl}methanesulfonamide hydrochloride] | 266 | –
